According to patent US6486198B1, “Compounds and methods for the treatment of post traumatic stress disorder” (priority 1999, dated 2002):

System: patients meeting DSM-IV criteria for chronic PTSD
Test: Discontinuation, side effects and tolerability in the PTSD patient study
Format: in vivo, human
Description: Thirty five (35) patients meeting DSM-IV criteria for chronic post-traumatic stress disorder (PTSD) were selected for a study of the effects of topiramate administration. Of these, […] had non-hallucinatory PTSD and 6 hallucinatory PTSD. The group with hallucinatory PTSD experienced auditory and/or visual hallucinations containing content specifically associated with identified traumatic events. Whether these were PTSD “flashbacks” or psychotic experiences were at times difficult to ascertain due to fluctuations in reality testing the hallucinations. For this reason, prior to being screened for PTSD, some patients had received psychiatric diagnoses of psychotic disorders despite meeting full diagnostic criteria for PTSD.
Topiramate was added naturalistically to existing pharmacotherapy (see Table 1 for concomitant medications at start of trial), starting at 25 mglday and increasing whenever possible by 25 to 50 mg/day every 3 to 4 days to clinical response. Target symptoms were DSM-IV PTSD criterion B symptoms of nightmares (N =24) and intrusions (intrusive recollections/flashbacks, N=35) involving re-experiencing of traumas. Definitions of improvement, as assessed from patient self-report, included “partial response” as “definite reduction in intensity and frequency of nightmares or intrusions”, and “full response” as “complete cessation of nightmares and intrusions for a sustained period”. Following the seminal observations, in order to systematically identify responsive symptoms, the next 17 patients completed a self-report scale, the PTSD Checklist—Civilian Version (PCL-C)15, at baseline and at 4 weeks after starting topiramate. The patients were instructed to complete the PCL-C for experiences corresponding to traumas consistent with DSM-IV criterion A for PTSD. Paired ttest scores for the PCL-C were calculated with Jandel SigmaStat® v. 2.0.
Thirteen patients eventually discontinued treatment: 9 due to side effects (urticaria [N=1], eating cessation [N=2], ocular and limb paresthesias [N=1], severe headaches [N=1], overstimulation/panic [N=2], emergent suicidal ideation [N=1], and memory concerns [N=1]) and 4 for other reasons (patient choice [N=1], lack of relapse upon medication interruption [N=2], lack of efficacy [N=1]). Five of the discontinuers had experienced full symptom remission prior to discontinuation and 3 additional patients reported partial response.
Discontinuation due to medication-associated side effects, such as nausea and memory concerns, may have been due to the presence of other medications, to medication interactions, or to individual variation in time needed to accommodate to initial side effects. Subsequent to discontinuation of topiramate, the patient who experienced urticaria continued to complain of unrelated episodes of urticaria. […] When they occurred, side effects were easily managed by dosage reduction or a brief hiatus in administration.

With `CC1(C)O[C@@H]2[C@@H](CO[C@@]3(COS(N)(=O)=O)OC(C)(C)O[C@@H]23)O1` [Topiramate, 2,3:4,5-bis-O-(1-methylethylidene)-β-D-fructopyranose sulfamate] the “Safety in the study” value (PTSD patients) was “posed no safety issues”, the Tolerability (PTSD population) was “appeared well tolerated” and the “Patients discontinued due to side effects” value (of 35 patients) was 9. The “Patients who eventually discontinued treatment” value (of 35 patients) was “Thirteen”, the “Additional discontinuers reporting partial response” value (of thirteen discontinuers) was 3 patients and the “Discontinuers with full symptom remission prior to discontinuation” value (of thirteen discontinuers) was “Five”.
